Reference: US7473682B2, “Angiogenic peptides and uses thereof” (Ramot at Tel Aviv University Ltd., priority 2003, dated 2009)

Experiments:
[1] = tested on: ears of nude mice and Balb/C mice; assay: In vivo angiogenesis in a mouse-ear model; settings: for Number of blood vessels: 5 days after inoculation
Method: In Wivo angiogenesis in a mouse-ear model—Ear angiogenesis studies were a modification of an approach described previously (Pettersson, 2000). […] Contralateral ears were injected only with PBS. […] Two days after peptide inoculation, angiogenic effect of peptides could be observed.
Histological sections—Histological sections of the mouse-ears injected with the angiogenic peptides were performed by fixing tissues in 4% buffered formalin. Sections were embedded in paraffin blocks sectioned in 4 μm thick layers and stained with hematoxolin-eosin.

mouse ischemic hind limb [2] = assay: Mouse ischemic hind limb model, blood perfusion (Laser Doppler Imager); type: in vivo; settings: 14 and 19 days following peptide injection, 10 μg
Method: (§1) Mouse ischemic hind limb model—Ischemia was created in the mouse left hind limb by ligation of the femoral artery. The right hind limb served as control. A day after the operation each of the peptides was injected into one site close to the ligation and one site distal to the ligation. Each mouse was treated with each of the peptides in a total amount of 10 μg.
Blood perfusion in ischemic mice—The percent of blood perfusion was measured using a Laser Doppler Imager (PeriMed, Sweden) at 14 and 19 days after peptides injections. The average percent perfusion of each limb was computed and expressed as the ischemic (left)/control (right) blood perfusion ratio.

mouse ischemic hind limb [3] = assay: Mouse ischemic hind limb model, physiological observations (ladder climbing); type: in vivo; parameters: key: 1 = walk and climb ... 4 = walk with difficulty, cannot climb; settings: mean score of 10 mice, 10 μg
Method: as §1
Physiological observations—Ischemic mice were evaluated for their ability to climb a ladder on day 1, 4, 7, and 10-post operation. The scoring system was as follows: 1—walk and climb; 2—walk and climb with some difficulty, 3—walk and cannot climb the ladder; 4—walk with difficulties and cannot climb the ladder.

Substance | Number of blood vessels ([1]; 3 ng/ear) | Peptide/PBS = ratio between the No. of blood vessels in the peptide-injected ear and in the PBS-injected ear ([1]; mouse ears, contralateral ear PBS) | The blood perfusion ratio (in percentages) of the ischemic vs. control limbs, Mean (mouse ischemic hind limb [2]) [percentages] | Physiological score (ability to climb a ladder) Day 1 (mouse ischemic hind limb [3]; 1 = walk and climb ... 4 = walk with difficulties and cannot climb, day 1 post operation) | Physiological score (ability to climb a ladder) Day 4 (mouse ischemic hind limb [3]; scale 1-4, day 4 post operation) | Physiological score (ability to climb a ladder) Day 7 (mouse ischemic hind limb [3]; scale 1-4, day 7 post operation) | Physiological score (ability to climb a ladder) Day 10 (mouse ischemic hind limb [3]; scale 1-4, day 10 post operation) | Number of blood vessels ([1]; 10 ng/ear) | Number of blood vessels in the ears of injected mice (photographs) ([1]; VEGF, 100 ng/mouse ear (FIG. 19a))
FGF: positive control, the angiogenic molecule FGF [reference compound] | 11 | 2.08 | 93.438 | 2.57 | 2 | 1 | 1 |  | 
VEGF [reference compound] |  |  |  |  |  |  |  | 17 | increased number of blood vessels
